Laboratory results published in patent publication US20230024096A1, “BIFUNCTIONAL COMPOUNDS FOR THE TREATMENT OF CANCER” (Hoffmann-La Roche Inc., priority 2019, published 2023).

Target: T1, SMARCA2 (Homo sapiens, UniProt P51531)
T1 construct: endogenous in cells; host or cells: HT1080 (CRISPR HiBiT knock-in clone, generated in house)
Assay: SMARCA2 HiBiT degradation assay (cellular)
Format: cell-based
Conditions: table head names A549; for DC50: 6 h incubation, HiBiT-tagged SMARCA2, luminescence read-out, read-out: HiBit A549 SMARCA2 IP (nM) 6 h; for Emax: A549, 6 h incubation, Emax = amount of residual protein remaining in the cell following compound treatment

T1 sequence (P51531 whole entry): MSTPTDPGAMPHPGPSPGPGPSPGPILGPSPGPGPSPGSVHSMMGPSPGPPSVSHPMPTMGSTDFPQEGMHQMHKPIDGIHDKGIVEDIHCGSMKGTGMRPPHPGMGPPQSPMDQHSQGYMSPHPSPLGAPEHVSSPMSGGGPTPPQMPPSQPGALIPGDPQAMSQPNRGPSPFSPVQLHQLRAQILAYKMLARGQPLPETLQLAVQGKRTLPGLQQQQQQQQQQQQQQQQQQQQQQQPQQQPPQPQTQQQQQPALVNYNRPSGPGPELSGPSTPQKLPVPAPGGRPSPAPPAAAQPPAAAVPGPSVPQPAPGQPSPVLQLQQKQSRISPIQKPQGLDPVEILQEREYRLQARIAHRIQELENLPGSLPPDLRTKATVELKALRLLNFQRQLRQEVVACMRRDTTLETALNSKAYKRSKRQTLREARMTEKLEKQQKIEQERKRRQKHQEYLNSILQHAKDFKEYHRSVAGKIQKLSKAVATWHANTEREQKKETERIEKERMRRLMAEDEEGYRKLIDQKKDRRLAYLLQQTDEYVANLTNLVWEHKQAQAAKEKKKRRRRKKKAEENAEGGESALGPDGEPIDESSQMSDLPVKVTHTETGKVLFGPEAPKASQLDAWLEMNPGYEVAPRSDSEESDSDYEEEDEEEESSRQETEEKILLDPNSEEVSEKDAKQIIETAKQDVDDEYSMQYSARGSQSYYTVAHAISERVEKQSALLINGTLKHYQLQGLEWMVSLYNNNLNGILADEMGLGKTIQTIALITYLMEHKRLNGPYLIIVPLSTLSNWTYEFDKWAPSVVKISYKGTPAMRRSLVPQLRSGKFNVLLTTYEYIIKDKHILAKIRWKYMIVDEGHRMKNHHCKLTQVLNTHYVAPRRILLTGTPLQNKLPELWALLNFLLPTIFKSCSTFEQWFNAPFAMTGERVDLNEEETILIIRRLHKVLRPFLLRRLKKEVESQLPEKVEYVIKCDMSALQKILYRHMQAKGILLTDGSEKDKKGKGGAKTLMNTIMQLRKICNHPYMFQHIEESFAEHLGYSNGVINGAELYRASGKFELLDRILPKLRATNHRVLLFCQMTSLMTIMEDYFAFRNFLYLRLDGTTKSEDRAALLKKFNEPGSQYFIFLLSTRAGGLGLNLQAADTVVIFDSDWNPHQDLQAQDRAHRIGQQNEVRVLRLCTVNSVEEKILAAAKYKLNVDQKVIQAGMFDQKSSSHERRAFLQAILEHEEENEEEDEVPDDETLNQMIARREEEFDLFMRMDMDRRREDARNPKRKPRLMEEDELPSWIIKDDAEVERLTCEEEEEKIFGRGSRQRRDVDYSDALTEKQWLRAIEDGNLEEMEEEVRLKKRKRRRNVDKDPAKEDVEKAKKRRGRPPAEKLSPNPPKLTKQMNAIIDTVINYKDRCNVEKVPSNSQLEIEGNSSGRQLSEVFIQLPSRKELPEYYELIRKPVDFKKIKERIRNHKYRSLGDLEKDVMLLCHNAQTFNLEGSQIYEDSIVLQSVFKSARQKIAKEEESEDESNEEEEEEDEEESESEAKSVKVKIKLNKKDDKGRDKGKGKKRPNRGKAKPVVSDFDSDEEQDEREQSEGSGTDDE

SMILES	DC50	Emax
Nc1nnc(-c2ccccc2O)cc1N1CCC(C(=O)NCC2CCN(CC3CCN(c4ccc5c(c4)C(=O)N(C4CCC(=O)NC4=O)C5=O)CC3)CC2)(c2ccccc2)CC1 (stereo not drawn) [Example 100, 1-(3-amino-6-(2-hydroxyphenyl)pyridazin-4-yl)-N-((1-((1-(2-(2,6-dioxopiperidin-3-yl)-1,3-dioxoisoindolin-5-yl)piperidin-4-yl)methyl)piperidin-4-yl)methyl)-4-phenylpiperidine-4-carboxamide]	104 nM	30%
Nc1nnc(-c2ccccc2O)cc1N1CCC(C(=O)NCC2CCN(C(=O)CN3CCC(c4ccc(OC5CCC(=O)NC5=O)cc4)CC3)CC2)(c2ccccc2)CC1 (stereo not drawn) [Example 101, 1-(3-amino-6-(2-hydroxyphenyl)pyridazin-4-yl)-N-((1-(2-(4-(4-((2,6-dioxopiperidin-3-yl)oxy)phenyl)piperidin-1-yl)acetyl)piperidin-4-yl)methyl)-4-phenylpiperidine-4-carboxamide]	102 nM	28%
Nc1nnc(-c2ccccc2O)cc1N1CCC(C(=O)NCC2CCN(C(=O)CN3CCC(c4ccc(NC5CCC(=O)NC5=O)cc4)CC3)CC2)(c2ccccc2)CC1 (stereo not drawn) [Example 102, 1-[3-amino-6-(2-hydroxyphenyl)pyridazin-4-yl]-N-[[1-[2-[4-[4-[(2,6-dioxopiperidin-3-yl)amino]phenyl]piperidin-1-yl]acetyl]piperidin-4-yl]methyl]-4-phenylpiperidine-4-carboxamide]	102 nM	38%
Nc1nnc(-c2ccccc2O)cc1N1CCC(C(=O)NCC2CCN(C(=O)CC3CCN(c4ccc5c(c4)C(=O)N(C4CCC(=O)NC4=O)C5=O)CC3)CC2)(c2ccccc2)CC1 (stereo not drawn) [Example 103, 1-(3-amino-6-(2-hydroxyphenyl)pyridazin-4-yl)-N-((1-(2-(1-(2-(2,6-dioxopiperidin-3-yl)-1,3-dioxoisoindolin-5-yl)piperidin-4-yl)acetyl)piperidin-4-yl)methyl)-4-phenylpiperidine-4-carboxamide]	104 nM	45%
Nc1nnc(-c2ccccc2O)cc1N1CCC(C(=O)NCC2CCN(C(=O)CCCN3CCC(c4ccc(OC5CCC(=O)NC5=O)cc4)CC3)CC2)(c2ccccc2)CC1 (stereo not drawn) [Example 104, 1-(3-amino-6-(2-hydroxyphenyl)pyridazin-4-yl)-N-((1-(4-(4-(4-((2,6-dioxopiperidin-3-yl)oxy)phenyl)piperidin-1-yl)butanoyl)piperidin-4-yl)methyl)-4-phenylpiperidine-4-carboxamide]	103 nM	33%
Nc1nnc(-c2ccccc2O)cc1N1CCC(C(=O)NCC2CCN(C(=O)CCCN3CCC(c4ccc(NC5CCC(=O)NC5=O)cc4)CC3)CC2)(c2ccccc2)CC1 (stereo not drawn) [Example 105, 1-(3-amino-6-(2-hydroxyphenyl)pyridazin-4-yl)-N-((1-(4-(4-(4-((2,6-dioxopiperidin-3-yl)amino)phenyl)piperidin-1-yl)butanoyl)piperidin-4-yl)methyl)-4-phenylpiperidine-4-carboxamide]	100 nM	33%
Nc1nnc(-c2ccccc2O)cc1N1CCC(NC(=O)CN2CCC(c3ccc(OC4CCC(=O)NC4=O)cc3)CC2)(c2ccccc2)CC1 (stereo not drawn) [Example 108, N-[1-[3-amino-6-(2-hydroxyphenyl)pyridazin-4-yl]-4-phenyl-4-piperidyl]-2-[4-[4-[(2,6-dioxo-3-piperidyl)oxy]phenyl]-1-piperidyl]acetamide]	109 nM	48%
Nc1nnc(-c2ccccc2O)cc1OC1CCCN(c2ccc(N3CCN(CCCCCCCCCn4cc(CCCNc5cccc6c5C(=O)N(C5CCC(=O)NC5=O)C6=O)nn4)CC3)cc2)C1 (stereo not drawn) [Example 109, 4-[3-[1-[9-[4-[4-[3-[3-amino-6-(2-hydroxyphenyl)pyridazin-4-yl]oxy-1-piperidyl]phenyl]piperazin-1-yl]nonyl]triazol-4-yl]propylamino]-2-(2,6-dioxo-3-piperidyl)isoindoline-1,3-dione]	103 nM	29%
Nc1nnc(-c2ccccc2O)cc1OC1CCCN(c2ccc(N3CCN(CCCCCCCCCn4cc(CCNc5cccc6c5C(=O)N(C5CCC(=O)NC5=O)C6=O)nn4)CC3)cc2)C1 (stereo not drawn) [Example 110, 4-[2-[1-[9-[4-[4-[3-[3-amino-6-(2-hydroxyphenyl)pyridazin-4-yl]oxy-1-piperidyl]phenyl]piperazin-1-yl]nonyl]triazol-4-yl]ethylamino]-2-(2,6-dioxo-3-piperidyl)isoindoline-1,3-dione]	276 nM	52%
Nc1nnc(-c2ccccc2O)cc1OC1CCCN(c2ccc(N3CCN(C(=O)CCCCCCCCn4cc(CNc5cccc6c5C(=O)N(C5CCC(=O)NC5=O)C6)nn4)CC3)cc2)C1 (stereo not drawn) [Example 111, 3-[7-[[1-[9-[4-[4-[3-[3-amino-6-(2-hydroxyphenyl)pyridazin-4-yl]oxy-1-piperidyl]phenyl]piperazin-1-yl]-9-oxo-nonyl]triazol-4-yl]methylamino]-1-oxo-isoindolin-2-yl]piperidine-2,6-dione]	177 nM	60%
Nc1nnc(-c2ccccc2O)cc1N1CCC(NC(=O)CCN2CCC(c3ccc(OC4CCC(=O)NC4=O)cc3)CC2)(c2ccccc2)CC1 (stereo not drawn) [Example 115, N-(1-(3-amino-6-(2-hydroxyphenyl)pyridazin-4-yl)-4-phenylpiperidin-4-yl)-3-(4-(4-((2,6-dioxopiperidin-3-yl)oxy)phenyl)piperidin-1-yl)propanamide diformate]	810 nM	63%
Nc1nnc(-c2ccccc2O)cc1N1CCC(C(=O)N2CCC(NC(=O)C3CCN(c4ccc5c(c4)C(=O)N(C4CCC(=O)NC4=O)C5=O)CC3)CC2)(c2ccccc2)CC1 (stereo not drawn) [Example 119, N-(1-(1-(3-amino-6-(2-hydroxyphenyl)pyridazin-4-yl)-4-phenylpiperidine-4-carbonyl)piperidin-4-yl)-1-(2-(2,6-dioxopiperidin-3-yl)-1,3-dioxoisoindolin-5-yl)piperidine-4-carboxamide]	35 nM	50%
Nc1nnc(-c2ccccc2O)cc1N1CCC(C(=O)N2CCN(C(=O)C3CCN(c4ccc5c(c4)C(=O)N(C4CCC(=O)NC4=O)C5=O)CC3)CC2)(c2ccccc2)CC1 (stereo not drawn) [Example 120, 5-(4-(4-(1-(3-amino-6-(2-hydroxyphenyl)pyridazin-4-yl)-4-phenylpiperidine-4-carbonyl)piperazine-1-carbonyl)piperidin-1-yl)-2-(2,6-dioxopiperidin-3-yl)isoindoline-1,3-dione]	31 nM	28%
Nc1nnc(-c2ccccc2O)cc1N1CCC(C(=O)N2CC3(CN(C(=O)C4CCN(c5ccc6c(c5)C(=O)N(C5CCC(=O)NC5=O)C6=O)CC4)C3)C2)(c2ccccc2)CC1 (stereo not drawn) [Example 121, 5-(4-(6-(1-(3-amino-6-(2-hydroxyphenyl)pyridazin-4-yl)-4-phenylpiperidine-4-carbonyl)-2,6-diazaspiro[3.3]heptane-2-carbonyl)piperidin-1-yl)-2-(2,6-dioxopiperidin-3-yl)isoindoline-1,3-dione]	47 nM	26%
Nc1nnc(-c2ccccc2O)cc1N1CCC(C(=O)N2CC3(CN(C(=O)CC4CCN(c5ccc6c(c5)C(=O)N(C5CCC(=O)NC5=O)C6=O)CC4)C3)C2)(c2ccccc2)CC1 (stereo not drawn) [Example 122, 5-(4-(2-(6-(1-(3-amino-6-(2-hydroxyphenyl)pyridazin-4-yl)-4-phenylpiperidine-4-carbonyl)-2,6-diazaspiro[3.3]heptan-2-yl)-2-oxoethyl)piperidin-1-yl)-2-(2,6-dioxopiperidin-3-yl)isoindoline-1,3-dione]	70 nM	29%
Nc1nnc(-c2ccccc2O)cc1N1CCC(C(=O)N2CC3(CN(C(=O)CCCN4CCC(c5ccc(OC6CCC(=O)NC6=O)cc5)CC4)C3)C2)(c2ccccc2)CC1 (stereo not drawn) [Example 123, 3-(4-(1-(4-(6-(1-(3-amino-6-(2-hydroxyphenyl)pyridazin-4-yl)-4-phenylpiperidine-4-carbonyl)-2,6-diazaspiro[3.3]heptan-2-yl)-4-oxobutyl)piperidin-4-yl)phenoxy)piperidine-2,6-dione]	75 nM	34%
Nc1nnc(-c2ccccc2O)cc1N1CCC(C(=O)NCC2CCN(CC3CCN(c4ccc5c(c4)C(=O)N(C4CCC(=O)NC4=O)C5=O)CC3)CC2)(c2ccccc2)C1 (stereo not drawn) [Example 124, 1-[3-amino-6-(2-hydroxyphenyl)pyridazin-4-yl]-N-[[1-[[l-[2-(2,6-dioxo-3-piperidyl)-1,3-dioxo-isoindolin-5-yl]-4-piperidyl]methyl]-4-piperidyl]methyl]-3-phenyl-pyrrolidine-3-carboxamide]	272 nM	63%
Nc1nnc(-c2ccccc2O)cc1N1CCN(c2cccc(CN3CCN(C(=O)C4CCN(c5ccc6c(c5)C(=O)N(C5CCC(=O)NC5=O)C6=O)CC4)CC3)c2)C2(CC2)C1 (stereo not drawn) [Example 127, 5-(4-(4-(3-(7-(3-amino-6-(2-hydroxyphenyl)pyridazin-4-yl)-4,7-diazaspiro[2.5]octan-4-yl)benzyl)piperazine-1-carbonyl)piperidin-1-yl)-2-(2,6-dioxopiperidin-3-yl)isoindoline-1,3-dione]		26%
Nc1nnc(-c2ccccc2O)cc1N1CCN(c2cccc(CN3CCN(C(=O)CCC4CCN(c5ccc6c(c5)C(=O)N(C5CCC(=O)NC5=O)C6=O)CC4)CC3)c2)C2(CC2)C1 (stereo not drawn) [Example 128, 5-(4-(3-(4-(3-(7-(3-amino-6-(2-hydroxyphenyl)pyridazin-4-yl)-4,7-diazaspiro[2.5]octan-4-yl)benzyl)piperazin-1-yl)-3-oxopropyl)piperidin-1-yl)-2-(2,6-dioxopiperidin-3-yl)isoindoline-1,3-dione]	18 nM	37%
Nc1nnc(-c2ccccc2O)cc1N1CCN(c2cccc(CN3CCN(C(=O)COc4ccc5c(c4)C(=O)N(C4CCC(=O)NC4=O)C5=O)CC3)c2)C2(CC2)C1 (stereo not drawn) [Example 129, 5-(2-(4-(3-(7-(3-amino-6-(2-hydroxyphenyl)pyridazin-4-yl)-4,7-diazaspiro[2.5]octan-4-yl)benzyl)piperazin-1-yl)-2-oxoethoxy)-2-(2,6-dioxopiperidin-3-yl)isoindoline-1,3-dione]	37 nM	38%
